Results: BigSolDB 2.1

NC(=O)c1cccnc1Cl
solubility (mole fraction)
Details	in 1,4-dioxane	in 2-ethoxyethanol	in 2-methoxyethanol	in DMAc	in DMF	in ethanol	in ethylene glycol	in methanol	in methyl acetate	in water
278.15 K	–	0.0124	0.0205	0.132	0.0981	0.00303	0.00783	0.00747	0.00215	0.00081
283.15 K	–	0.0154	0.0246	0.141	0.107	0.00366	0.00946	0.00893	0.00263	0.00102
288.15 K	0.00632	0.0182	0.0293	0.152	0.115	0.00443	0.0114	0.0104	0.00331	0.00127
293.15 K	0.0077	0.0224	0.0352	0.163	0.126	0.00539	0.0136	0.0122	0.0041	0.00157
298.15 K	0.00958	0.0267	0.0413	0.175	0.137	0.00698	0.0167	0.0148	0.00506	0.00193
303.15 K	0.0118	0.0311	0.0478	0.187	0.149	0.00821	0.0201	0.0171	0.00587	0.00237
308.15 K	0.0136	0.0375	0.0542	0.199	0.161	0.0101	0.024	0.0204	0.00699	0.00291
313.15 K	0.0168	0.0437	0.0642	0.213	0.175	0.0124	0.0283	0.0238	0.00885	0.00351
318.15 K	0.02	0.0524	0.0747	0.227	0.188	0.0147	0.034	0.0278	0.0105	0.00437
323.15 K	0.0244	0.0615	0.0856	0.24	0.202	0.0178	0.0403	0.0324	0.0127	0.00546
